Results reported in ChEMBL document CHEMBL6096686, “Lanosterol 14α-Demethylase (CYP51)/Heat Shock Protein 90 (Hsp90) Dual Inhibitors for the Treatment of Invasive Candidiasis” (J Med Chem, 2025).
≈ marks a conversion by molar mass, not a printed value. Calls of active or inactive are those of the source. No cut-off for these calls is given here.

Legend:
Nakaseomyces glabratus [1] = test: Antifungal activity against Candida glabrata 7804 incubated for 48 hrs by CLSI based liquid microdilution technique; type: functional
Candida albicans [2] = test: Antifungal activity against Candida albicans SC5314 incubated for 48 hrs by CLSI based liquid microdilution technique; type: functional
Cryptococcus neoformans [3] = test: Antifungal activity against Cryptococcus neoformans H99 incubated for 72 hrs by CLSI based liquid microdilution technique; type: functional
Pichia kudriavzevii [4] = test: Antifungal activity against Candida krusei 10153 incubated for 48 hrs by CLSI based liquid microdilution technique; type: functional
Candida albicans [5] = test: Synergistic antifungal activity against Candida albicans SC5314 infected in immunosuppressed ICR mouse assessed as reduction in fungal burden in kidney at 10 mg/kg, ip treated for 5 days consecutively in presence of FLC; type: functional, organism-based; settings: time 5.0 day
Nakaseomyces glabratus [6] = test: Synergistic antifungal activity against Candida glabrata 7804 incubated for 48 hrs in presence of FLC by CLSI based liquid microdilution technique; type: functional
[7] = target: Heat shock protein 90 homolog (Candida albicans (strain SC5314 / ATCC MYA-2876) (Yeast), UniProt P46598); test: Inhibition of HSP90 extracted from Candida albicans SC5314 lysate using FITC-Geldanamycin as substrate incubated for 6 hrs by fluorescence polarization assay; type: subcellular
Heat shock protein 90 homolog, sequence (P46598 whole entry): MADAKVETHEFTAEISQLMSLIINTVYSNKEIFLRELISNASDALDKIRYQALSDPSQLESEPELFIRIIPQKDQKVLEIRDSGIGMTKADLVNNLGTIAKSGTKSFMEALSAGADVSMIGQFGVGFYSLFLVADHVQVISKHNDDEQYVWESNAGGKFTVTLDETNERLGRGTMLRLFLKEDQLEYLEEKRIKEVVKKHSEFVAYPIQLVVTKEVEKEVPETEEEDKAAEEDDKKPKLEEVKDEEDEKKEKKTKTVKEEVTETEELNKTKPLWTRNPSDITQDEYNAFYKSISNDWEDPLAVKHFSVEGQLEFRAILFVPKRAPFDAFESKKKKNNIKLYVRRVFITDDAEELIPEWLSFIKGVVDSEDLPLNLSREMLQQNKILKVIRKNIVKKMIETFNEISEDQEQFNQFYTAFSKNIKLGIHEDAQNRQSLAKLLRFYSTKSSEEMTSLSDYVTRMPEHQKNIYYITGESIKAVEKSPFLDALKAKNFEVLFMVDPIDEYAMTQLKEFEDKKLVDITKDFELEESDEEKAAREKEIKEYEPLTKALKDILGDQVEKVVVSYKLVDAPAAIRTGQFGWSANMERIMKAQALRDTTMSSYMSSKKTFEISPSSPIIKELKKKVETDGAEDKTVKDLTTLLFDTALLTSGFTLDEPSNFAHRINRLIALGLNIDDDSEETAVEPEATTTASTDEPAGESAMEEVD

[8] = target: Lanosterol 14-alpha demethylase (Candida albicans (strain SC5314 / ATCC MYA-2876) (Yeast), UniProt P10613); test: Inhibition of CYP51 in Candida albicans SC5314 assessed as decrease in ergosterol level at 4 ug/ml measured after 48 hrs by GC-MS analysis; settings: at 4 µg/mL
Lanosterol 14-alpha demethylase, sequence (P10613 whole entry): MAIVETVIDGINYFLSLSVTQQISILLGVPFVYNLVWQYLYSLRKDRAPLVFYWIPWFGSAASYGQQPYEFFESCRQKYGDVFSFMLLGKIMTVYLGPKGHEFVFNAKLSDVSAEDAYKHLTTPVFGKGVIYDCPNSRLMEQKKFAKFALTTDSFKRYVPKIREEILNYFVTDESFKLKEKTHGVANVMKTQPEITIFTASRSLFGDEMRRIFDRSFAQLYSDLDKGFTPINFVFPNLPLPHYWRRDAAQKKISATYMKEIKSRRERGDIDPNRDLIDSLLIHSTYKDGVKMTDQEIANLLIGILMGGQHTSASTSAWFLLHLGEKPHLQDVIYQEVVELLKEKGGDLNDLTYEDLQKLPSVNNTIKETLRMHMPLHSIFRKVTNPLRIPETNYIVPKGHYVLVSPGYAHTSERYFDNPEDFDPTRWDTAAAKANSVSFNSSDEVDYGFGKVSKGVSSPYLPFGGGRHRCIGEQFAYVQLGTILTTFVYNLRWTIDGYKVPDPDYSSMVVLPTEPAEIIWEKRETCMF

Candida albicans [9] = test: Inhibition of biofilm formation in Candida albicans SC5314 at 4 ug/ml incubated for 24 hrs by XTT reduction method relative to control; type: functional; settings: dose 4.0 µg/ml
Cryptococcus neoformans [10] = test: Synergistic antifungal against Cryptococcus neoformans H99 incubated for 72 hrs in presence of FLC by CLSI based liquid microdilution technique; type: functional
Heat shock protein HSP90 = Heat shock protein HSP90 (Homo sapiens, UniProt P07900+P08238); test: Inhibition of human HSP90 using FITC-Geldanamycin as substrate incubated for 6 hrs by fluorescence polarization assay; type: protein assay
Pichia kudriavzevii [11] = test: Synergistic antifungal activity against Candida krusei 10153 incubated for 48 hrs in presence of FLC by CLSI based liquid microdilution technique; type: functional
Candida albicans [12] = test: Synergistic antifungal activity against Candida albicans SC5314 incubated for 48 hrs in presence of FLC by CLSI based liquid microdilution technique; type: functional
Candida albicans [13] = test: Antifungal activity against Candida albicans SC5314 infected in immunosuppressed ICR mouse assessed as reduction in fungal burden in kidney at 10 mg/kg, ip treated for 5 days consecutively; type: functional, organism-based; settings: time 5.0 day
[14] = Cytotoxicity against HUVEC cells measured after 72 hrs by CCK8 assay; type: toxicity, cell-based; settings: human
[15] = Cytotoxicity against human L02 cells measured after 72 hrs by CCK8 assay; type: toxicity, cell-based

| SMILES | MIC80 (Nakaseomyces glabratus [1]) | MIC80 (Candida albicans [2]) | MIC80 (Cryptococcus neoformans [3]) | MIC80 (Pichia kudriavzevii [4]) | Activity (Candida albicans [5]) | fractional inhibitory concentration index (FICI) (Nakaseomyces glabratus [6]) | IC50 [7] | inhibition (INH) [8] | inhibition (Candida albicans [9]) | fractional inhibitory concentration index (FICI) (Cryptococcus neoformans [10]) | IC50 (Heat shock protein HSP90) | fractional inhibitory concentration index (FICI) (Pichia kudriavzevii [11]) | fractional inhibitory concentration index (FICI) (Candida albicans [12]) | Activity (Candida albicans [13]) | IC50 at 72 h [14] | IC50 at 72 h [15] |
| --- | --- | --- | --- | --- | --- | --- | --- | --- | --- | --- | --- | --- | --- | --- | --- | --- |
| CCN(C(=O)c1cc(-c2ccc(C)cc2)c(O)cc1O)c1ccc(CN2CCN(C(=O)CCCCCOc3ccc(CN(C)CC(O)(Cn4cncn4)c4ccc(F)cc4F)cc3)CC2)cc1 (stereo not drawn) | 16 µg/mL (≈ 17.5 µM) | 8 µg/mL (≈ 8.73 µM) | 8 µg/mL (≈ 8.73 µM) | 32 µg/mL (≈ 34.9 µM) | – | – | – | – | – | – | – | – | – | – | – | – |
| CCNC(=O)c1noc(-c2cc(-c3ccc(C)cc3)c(O)cc2O)c1-c1ccc(CN2CCOCC2)cc1 | > 64 µg/mL | 32 µg/mL (≈ 62.3 µM) | 32 µg/mL (≈ 62.3 µM) | > 64 µg/mL | Active | 0.5 | 390 nM | Not_active | Active; Exhibited Little Inhibitory Effect | 0.31 | 1540 nM | 2 | 0.13 | inactive | 680 nM | 680 nM |
| CCN(C(=O)c1cc(-c2ccc(C)cc2)c(OCc2ccccc2)cc1OCc1ccccc1)c1ccc(CN2CCN(CC(O)(Cn3cncn3)c3ccc(F)cc3F)CC2)cc1 (stereo not drawn) | 16 µg/mL (≈ 18.5 µM) | > 64 µg/mL | > 64 µg/mL | > 64 µg/mL | – | – | – | – | – | – | – | – | – | – | – | – |
| CCN(C(=O)c1cc(-c2ccc(C)cc2)c(O)cc1O)c1ccc(CN2CCN(C(=O)CCCOc3ccc(CN(C)CC(O)(Cn4cncn4)c4ccc(F)cc4F)cc3)CC2)cc1 (stereo not drawn) | 16 µg/mL (≈ 18 µM) | 8 µg/mL (≈ 9.01 µM) | 4 µg/mL (≈ 4.5 µM) | 16 µg/mL (≈ 18 µM) | – | – | – | – | – | – | – | – | – | – | – | – |
